The values that follow come from patent US9303033B2, “Pyrazolopyrimidines and related heterocycles as CK2 inhibitors” (SENHWA BIOSCIENCES, INC., priority 2009, dated 2016).

pIC50: −log10 of the molar value. Like-named read-outs stand apart in the source and are kept apart here.

In test [1] the target is recombinant human PIM2 (Homo sapiens (Human), UniProt Q9P1W9). Description: PIM-2 assay (33P-ATP filter binding). In kind it is biochemical. To be noted: for pIC50: 5 μM ATP.
Method: Test compounds dissolved and diluted in DMSO (2 μl) were added to a reaction mixture comprising 10 μl of 5× Reaction Buffer (40 mM MOPS pH 7.0, 5 mM EDTA), 10 μl of recombinant human PIM2 solution (4 ng PIM-2 dissolved in dilution buffer (20 mM MOPS pH 7.0; EDTA 1 mM; 5% Glycerol; 0.01% Brij 35; 0.1%; 0.1% 2-mercaptoethanol; 1 mg/ml BSA)) and 8 ul of water.
Test [2] has as its target recombinant PIM-1 (Homo sapiens (Human), UniProt P11309). The test is described as follows: PIM-1 assay (33P-ATP filter binding). The test is classed as biochemical. The note with it: read-out: PIM1: IC50 (30 μM ATP).
Method: (SEQ ID NO.: 5), 10 mM MgAcetate, 15 uM ATP, [γ-^33P-ATP] (specific activity approx. 500 cpm/pmol), DMSO 4% and test inhibitor compound at the required concentration. The reaction was initiated by the addition of the Magnesium ATP mixture. After 40 min incubation at 23° C., the reactions were quenched by the addition of 100 ul 0.75% Phosphoric acid, and the labeled peptide collected by filtration through a phosphocellulose filter plate. The plate was washed 4 times with 0.075% phosphoric acid (100 ul per well) and then, after the addition of scintillation fluid (20 ul per well), the counts were measured by a scintillation counter.
Test [3] has as its target CK2 ααββ (Homo sapiens (Human), UniProt P68400). The test is described as follows: CK2 assay (cell-free, 33P-ATP, phosphocellulose filter plate). In kind it is biochemical.
Method: Modulatory activity of compounds described herein was assessed in vitro in cell-free CK2 assays by the following method.
Reactions were maintained for 40 min at 23° C. The reactions were quenched with 100 ul of 0.75% Phosphoric acid, then transferred to and filtered through a Phosphocellulose filter plate (Millipore, MSPH-N6B-50). After washing each well 4 times with 0.75% Phosphoric acid, scintillation fluid (20 uL) was added to each well and the residual radioactivity was measured using a Wallac luminescence counter.
Test [4] relates to MDAMB453. Description: Cell proliferation assay with Alamar Blue (AB), MDAMB453. The test is classed as cell-based. The method, boiled down: (§1)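 4,000–5,000 cells per well were exposed to compound for four days at 37° C, 5% CO2. Alamar Blue was then added for four hours, and fluorescence was read at 544 nm excitation / 590 nm emission.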
(In general: The colour change of resazurin is a common sign of viable cells or microbes.)

Test [5] concerns BxPC3 human pancreatic adenocarcinoma cells. Description: Cell proliferation assay with Alamar Blue (AB), BxPC3. In kind it is cell-based. In outline:
as §1

Setting [6] is: Homo sapiens, MDA-MB-453, MDAMB453 cells, read-out: AB: MDAMB453.
The mark [7] stands for this setting: Homo sapiens, BXPC-3, read-out: AB: BxPC3.
[8] abbreviates: read-out: PIM2: IC50 (5 μM ATP).
Setting [9] is: MDAMB453 cells, read-out: AB: MDAMB453.

CK2 ααββ, sequence (P68400 whole entry): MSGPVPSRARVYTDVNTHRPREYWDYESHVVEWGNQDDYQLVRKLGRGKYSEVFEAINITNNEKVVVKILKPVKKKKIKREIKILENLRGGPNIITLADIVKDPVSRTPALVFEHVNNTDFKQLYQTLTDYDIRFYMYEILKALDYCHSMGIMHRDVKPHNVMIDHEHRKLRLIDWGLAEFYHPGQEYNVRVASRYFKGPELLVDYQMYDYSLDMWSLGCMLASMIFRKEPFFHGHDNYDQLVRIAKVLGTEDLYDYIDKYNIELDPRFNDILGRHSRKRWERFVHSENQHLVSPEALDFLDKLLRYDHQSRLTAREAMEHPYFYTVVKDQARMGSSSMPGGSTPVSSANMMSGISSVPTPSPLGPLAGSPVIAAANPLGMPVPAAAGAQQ
CK2 ααββ, sequence (P67870 whole entry partner): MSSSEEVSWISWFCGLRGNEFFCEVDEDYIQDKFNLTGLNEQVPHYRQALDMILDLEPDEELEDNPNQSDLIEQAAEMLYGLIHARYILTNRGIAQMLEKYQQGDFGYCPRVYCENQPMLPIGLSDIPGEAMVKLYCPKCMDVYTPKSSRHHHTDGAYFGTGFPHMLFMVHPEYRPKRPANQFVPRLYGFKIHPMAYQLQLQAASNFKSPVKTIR
recombinant PIM-1, sequence (P11309 whole entry): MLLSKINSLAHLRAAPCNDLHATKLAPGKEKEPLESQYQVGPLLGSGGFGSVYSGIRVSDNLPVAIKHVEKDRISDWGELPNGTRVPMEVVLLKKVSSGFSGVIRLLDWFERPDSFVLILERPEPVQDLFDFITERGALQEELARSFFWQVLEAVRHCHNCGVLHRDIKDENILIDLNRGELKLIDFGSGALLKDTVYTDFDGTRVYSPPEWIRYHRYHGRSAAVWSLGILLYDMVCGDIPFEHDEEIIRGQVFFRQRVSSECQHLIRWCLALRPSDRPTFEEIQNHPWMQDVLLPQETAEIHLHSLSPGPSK
recombinant human PIM2, sequence (Q9P1W9 whole entry): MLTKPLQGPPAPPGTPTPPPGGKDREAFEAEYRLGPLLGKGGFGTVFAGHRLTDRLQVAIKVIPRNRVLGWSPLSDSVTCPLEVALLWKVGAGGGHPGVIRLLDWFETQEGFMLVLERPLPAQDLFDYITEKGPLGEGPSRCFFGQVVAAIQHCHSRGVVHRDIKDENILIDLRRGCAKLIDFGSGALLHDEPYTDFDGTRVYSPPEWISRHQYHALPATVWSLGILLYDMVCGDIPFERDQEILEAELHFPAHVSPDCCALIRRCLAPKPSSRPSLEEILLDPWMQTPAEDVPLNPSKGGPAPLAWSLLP

In the case of `CN(C)c1cc(NC2CC2)n2ncc(/C=C3\SC(=O)NC3=O)c2n1` [Example I3], the pIC50 is 6.06 in test [1] (PIM2: IC50 (5 μM ATP)), less than 5.60 in test [2] and more than 7.00 in test [3].
The like results for `CCN(CC)c1cc(NC2CC2)n2ncc(/C=C3\SC(=O)NC3=O)c2n1` [Example L3] were, in that order, 5.84, less than 5.60 and more than 6.00.
For `CC(C)CNc1cc(NC2CC2)n2ncc(/C=C3\SC(=O)NC3=O)c2n1` [Example F3] the same measures were 5.78, 5.69 and more than 6.00.
The like results for `CN1CCC(N(C)c2cc(NC3CC3)n3ncc(/C=C4\SC(=O)NC4=O)c3n2)C1` (stereo not drawn) [Example M3] were, in that order, 5.84, 5.84 and more than 7.00.
`O=C1NC(=O)/C(=C/c2cnn3c(NC4CC4)cc(Nc4cccc(Cl)c4)nc23)S1` [Example J3]: the figures for the pIC50 in test [1] (PIM2: IC50 (5 μM ATP)), in test [2] and in test [3] were less than 5.60, less than 5.60 and more than 6.00, respectively.
As to `CC(O)CNc1cc(NC2CC2)n2ncc(/C=C3\SC(=O)NC3=O)c2n1` (stereo not drawn) [Example H3], the pIC50 was less than 5.60 in test [1] (PIM2: IC50 (5 μM ATP)), 5.62 in test [2] and more than 6.00 in test [3].
The like results for `O=C1NC(=O)/C(=C/c2cnn3c(NC4CC4)cc(N4CCOCC4)nc23)S1` [Example K3] were, in that order, 5.86, 6.04 and more than 6.00.
Turning to `CCN1CCCC1CNc1cc(NC2CC2)n2ncc(/C=C3\SC(=O)NC3=O)c2n1` (stereo not drawn) [Example G3], the pIC50 was 5.73 in test [1] (PIM2: IC50 (5 μM ATP)); 5.11 in test [4] (setting [6]); 5.69 in test [2]; 5.02 in test [5] (setting [7]); more than 7.00 in test [3].
For `CN(C)c1ccc(-c2cc(NC3CC3)n3ncc(/C=C4\NC(=O)NC4=O)c3n2)cc1` [Example I4], the pIC50 in test [1] (PIM2: IC50 (5 μM ATP)) is less than 5.60; in test [4] (setting [6]), 6.17; in test [5] (setting [7]), 5.72; in test [3] it was more than 7.00.
For `O=C1NC(=O)/C(=C/c2cnn3c(NC4CC4)cc(N4CC[C@@H](F)C4)nc23)N1` [Example P2] the same measures were 6.15, 6.18, 5.67 and more than 8.00.
The like results for `CC(O)CNc1cc(Nc2cccc(Cl)c2)nc2c(/C=C3\NC(=O)NC3=O)cnn12` (stereo not drawn) [Example K6] were, in that order, 6.50, 6.03, 5.50 and more than 6.00.
With `CC(O)c1cccc(-c2cc(NC3CC3)n3ncc(/C=C4\NC(=O)NC4=O)c3n2)c1` (stereo not drawn) [Example S4], the pIC50 was less than 5.60 in test [1] (PIM2: IC50 (5 μM ATP)), 4.70 in test [4] (setting [6]), 5.34 in test [5] (setting [7]) and more than 8.00 in test [3].
For the molecule `O=C1NC(=O)/C(=C/c2cnn3c(Nc4cccc(C(=O)O)c4)cc(Nc4cccc(Cl)c4)nc23)N1` [Example D7], the pIC50 in test [1] (PIM2: IC50 (5 μM ATP)) was less than 5.60; in test [4] (setting [6]), 4.85; in test [5] (setting [7]), less than 4.52; in test [3], more than 7.00.
As to `O=C1NC(=O)/C(=C/c2cnn3c(NC4CC4)cc(Nc4cccc(OC(F)(F)F)c4)nc23)N1` [Example E1], the pIC50 in test [1] (PIM2: IC50 (5 μM ATP)) was less than 5.60; in test [4] (setting [6]), 4.75; in test [5] (setting [7]), 4.77; in test [3] it was more than 8.00.
For `NCc1cccc(-c2cc(NC3CC3)n3ncc(/C=C4\SC(=O)NC4=O)c3n2)c1` [Example J5], the pIC50 in test [1] (PIM2: IC50 (5 μM ATP)) was 6.70; in test [4] (setting [6]) it was less than 4.52; in test [5] (setting [7]), 4.72; in test [3] it was more than 6.00.
Consider `O=C1NC(=O)C(=Cc2cnn3c(NC4CC4)cc(-c4csc(CN5CCCC5)c4)nc23)N1` [Compound Y13], for which the pIC50 in test [1] (setting [8]) is less than 5.60; in test [4] (setting [9]), 5.86; in test [5] (read-out: AB: BxPC3), 6.03; in test [3] it was more than 8.00.
As for `O=C1NC(=O)/C(=C/c2cnn3c(NC4CC4)cc(-c4ccnc(F)c4)nc23)N1` [Example O4], the pIC50 in test [1] (PIM2: IC50 (5 μM ATP)) was less than 5.60; in test [4] (setting [6]) it was 4.77; in test [5] (setting [7]) it was 5.91; in test [3] it was more than 8.00.
`O=C1NC(=O)/C(=C/c2cnn3c(NC4CC4)cc(NCCF)nc23)S1` [Example N3]: the values for the pIC50 in test [1] (PIM2: IC50 (5 μM ATP)), in test [2] and in test [3] were less than 5.60, less than 5.60 and more than 6.00, respectively.
For `CC1CN(C(C)c2cccc(Nc3cc(NC4CC4)n4ncc(/C=C5\NC(=O)NC5=O)c4n3)c2)CC(C)O1` (stereo not drawn) [Example G1], the pIC50 was less than 5.60 in test [1] (PIM2: IC50 (5 μM ATP)), 5.00 in test [4] (setting [6]), less than 4.52 in test [5] (setting [7]) and more than 8.00 in test [3].
Consider `CN(C)C1CCN(Cc2cc(-c3cc(NC4CC4)n4ncc(C=C5NC(=O)NC5=O)c4n3)cs2)C1` (stereo not drawn) [Compound Z13], for which the pIC50 in test [1] (setting [8]) was less than 5.60; in test [4] (setting [9]) it was 5.60; in test [5] (read-out: AB: BxPC3), 4.99; in test [3] it was more than 8.00.
With `COc1cccc(Nc2cc(NC3CC3)n3ncc(/C=C4\NC(=O)NC4=O)c3n2)c1` [Example F1], the pIC50 in test [1] (PIM2: IC50 (5 μM ATP)) was less than 5.60; in test [4] (setting [6]) it was 5.69; in test [5] (setting [7]), 5.24; in test [3] it was more than 8.00.
The like results for `C=CCOc1cccc(-c2cc(NC3CC3)n3ncc(/C=C4\NC(=O)NC4=O)c3n2)c1` [Example E4] were, in that order, less than 5.60, 5.93, 4.93 and more than 8.00.
With `O=C1NC(=O)C(=Cc2cnn3c(NC4CC4)cc(Nc4ccc(OCCN5CCOCC5)cc4F)nc23)N1` [Example S42], the “PIM2: % inh […]” value in test [1] (at […] compound) was 44.49%. The pIC50 was 5.56 in test [4] (MDAMB453 cells, read-out: AB: MDAMB453 IC50); 5.30 in test [5] (read-out: AB: BxPC3 IC50); more than 8.00 in test [3].
As to `O=C1NC(=O)/C(=C/c2cnn3c(NCC4CC4)cc(Nc4ccc(Cl)nc4)nc23)N1` [Example X1], the pIC50 in test [1] (PIM2: IC50 (5 μM ATP)) is less than 5.60; in test [4] (setting [6]), 5.16; in test [5] (setting [7]) it was 5.10; in test [3] it was more than 7.00.
For `O=C1NC(=O)/C(=C/c2cnn3c(NC4CC4)cc(-c4cccc(OCC(=O)N5CCCC5)c4)nc23)N1` [Example H4] the same measures were less than 5.60, 5.71, 4.84 and more than 8.00.
In the case of `CN1C(=O)S/C(=C\c2cnn3c(NC4CC4)cc(Nc4cccc(Cl)c4)nc23)C1=O` [Example P3], the pIC50 in test [1] (PIM2: IC50 (5 μM ATP)) is less than 5.60; in test [2] it was less than 5.60; in test [3] it was more than 6.00.
